Source: US20220225159A1, “PARENTERAL DELIVERY OF AVIZAFONE” (Sollievo Pharmaceuticals, Inc, priority 2020, published 2022)

Key:
[1] = Diazepam plasma PK after single-dose SQ administration of AVF to dogs (Example 1); conditions: mean; single-dose SQ approx. 1.9 mg/kg avizafone; NCA
[2] = test system: beagle dogs; test: Time to onset of sedation after IM administration of AVF in a canine model; format: in vivo
[3] = Diazepam plasma PK after single-dose IM administration of AVF to dogs, Study 1 (Example 1)
[4] = Diazepam plasma PK after single-dose IM administration of more concentrated AVF to dogs, Study 2 (Example 2); conditions: for AUClast/D (diazepam) / Cmax/D (diazepam): N=6, 0.0952 mol/L AVF, NCA
[5] = geometric mean, N=6, Study 1, IM, NCA
[6] = mean, N=6, Study 1, IM, NCA, Table 5
[7] = pooled without and with niacin, IM vs SQ

Substance: Avizafone
- Cmax/D (diazepam) [1]: 264 (ng/mL)/(mg/kg)
- V/F (diazepam) [1]: 2.432 L/kg
- median time for onset of sedation ([2]; Study 1, IM, less concentrated AVF formulations (mean 0.0300 mol/L)): greater than 45 minutes
- median time for onset of sedation ([2]; Study 2, IM, more concentrated formulation (0.0952 mol/L)): approximately 10 minutes
- mean K01 (input rate constant) for DZP ([3]; Study 1, IM, compartment modeling): 0.2289 min⁻¹
- AUClast/D (diazepam) [3, 5]: 22243 (min*ng/mL)/(mg/kg)
- Cmax/D (diazepam) [3, 5]: 650 (ng/mL)/(mg/kg)
- AUClast/D (diazepam) [3, 6]: 22637 (min*ng/mL)/(mg/kg)
- Cmax/D (diazepam) [3, 6]: 702 (ng/mL)/(mg/kg)
- V/F (diazepam) ([3]; mean, single-dose IM approx. 1.6 to 1.8 mg/kg avizafone, NCA): 1.435 L/kg
- Cmax/D (diazepam) ([3]; mean, single-dose IM approx. 1.6 to 1.8 mg/kg avizafone, NCA, Table 2): 397 (ng/mL)/(mg/kg)
- AUClast/D (diazepam) ([3]; median, N=6, Study 1, IM, NCA): 22225 (min*ng/mL)/(mg/kg)
- Cmax/D (diazepam) ([3]; median, N=6, Study 1, IM, NCA): 574 (ng/mL)/(mg/kg)
- DZP AUClast/D higher following IM than following SQ administration [3, 7]: 1.43 fold
- DZP Cmax/D higher following IM than following SQ administration [3, 7]: 1.50 fold
- shorter Tmax in Study 2 than in Study 1 ([4]; 3-fold higher injection solution concentration, 3-fold smaller injection volume, IM): 3 fold
- mean K01 higher in Study 2 compared to Study 1 ([4]; IM, Study 2 vs Study 1, compartment modeling): 4.2 fold
- mean K01 (input rate constant) for DZP ([4]; Study 2, IM, compartment modeling): 0.9501 min⁻¹
- AUClast/D (diazepam) ([4]; geometric mean, Study 2, IM): 22101 (min*ng/mL)/(mg/kg)
- Cmax/D (diazepam) ([4]; geometric mean, Study 2, IM): 644 (ng/mL)/(mg/kg)
- AUClast/D (diazepam) ([4]; mean, Study 2, IM): 22176 (min*ng/mL)/(mg/kg)
- Cmax/D (diazepam) ([4]; mean, Study 2, IM): 656 (ng/mL)/(mg/kg)
- AUClast/D (diazepam) ([4]; median, Study 2, IM): 21903 (min*ng/mL)/(mg/kg)
- Cmax/D (diazepam) ([4]; median, Study 2, IM): 605 (ng/mL)/(mg/kg)
